Assay results reported in US8895733B2 (Novartis AG, priority 2010, dated 2014).

target: T1, Nav 1.7 (Homo sapiens, UniProt Q15858); experiment: Whole-cell voltage clamp electrophysiology, automated patch clamp (marker c in Table of Examples); type: cell-based; details: marker c = Automated patch clamp data; read-out: Nav 1.7 activity
T1 construct: expressed in transfected cells
Summary of the method: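 A voltage protocol weighted toward inactivated-state block was used to test compounds on stably expressing cells, with pulses from −65 mV holding to −10 mV test and −100 mV. Currents came from whole-cell automated patch-clamp recordings, either IonWorks Quattro or other automated instruments, usually in perforated-patch mode.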

T1 sequence (Q15858 whole entry): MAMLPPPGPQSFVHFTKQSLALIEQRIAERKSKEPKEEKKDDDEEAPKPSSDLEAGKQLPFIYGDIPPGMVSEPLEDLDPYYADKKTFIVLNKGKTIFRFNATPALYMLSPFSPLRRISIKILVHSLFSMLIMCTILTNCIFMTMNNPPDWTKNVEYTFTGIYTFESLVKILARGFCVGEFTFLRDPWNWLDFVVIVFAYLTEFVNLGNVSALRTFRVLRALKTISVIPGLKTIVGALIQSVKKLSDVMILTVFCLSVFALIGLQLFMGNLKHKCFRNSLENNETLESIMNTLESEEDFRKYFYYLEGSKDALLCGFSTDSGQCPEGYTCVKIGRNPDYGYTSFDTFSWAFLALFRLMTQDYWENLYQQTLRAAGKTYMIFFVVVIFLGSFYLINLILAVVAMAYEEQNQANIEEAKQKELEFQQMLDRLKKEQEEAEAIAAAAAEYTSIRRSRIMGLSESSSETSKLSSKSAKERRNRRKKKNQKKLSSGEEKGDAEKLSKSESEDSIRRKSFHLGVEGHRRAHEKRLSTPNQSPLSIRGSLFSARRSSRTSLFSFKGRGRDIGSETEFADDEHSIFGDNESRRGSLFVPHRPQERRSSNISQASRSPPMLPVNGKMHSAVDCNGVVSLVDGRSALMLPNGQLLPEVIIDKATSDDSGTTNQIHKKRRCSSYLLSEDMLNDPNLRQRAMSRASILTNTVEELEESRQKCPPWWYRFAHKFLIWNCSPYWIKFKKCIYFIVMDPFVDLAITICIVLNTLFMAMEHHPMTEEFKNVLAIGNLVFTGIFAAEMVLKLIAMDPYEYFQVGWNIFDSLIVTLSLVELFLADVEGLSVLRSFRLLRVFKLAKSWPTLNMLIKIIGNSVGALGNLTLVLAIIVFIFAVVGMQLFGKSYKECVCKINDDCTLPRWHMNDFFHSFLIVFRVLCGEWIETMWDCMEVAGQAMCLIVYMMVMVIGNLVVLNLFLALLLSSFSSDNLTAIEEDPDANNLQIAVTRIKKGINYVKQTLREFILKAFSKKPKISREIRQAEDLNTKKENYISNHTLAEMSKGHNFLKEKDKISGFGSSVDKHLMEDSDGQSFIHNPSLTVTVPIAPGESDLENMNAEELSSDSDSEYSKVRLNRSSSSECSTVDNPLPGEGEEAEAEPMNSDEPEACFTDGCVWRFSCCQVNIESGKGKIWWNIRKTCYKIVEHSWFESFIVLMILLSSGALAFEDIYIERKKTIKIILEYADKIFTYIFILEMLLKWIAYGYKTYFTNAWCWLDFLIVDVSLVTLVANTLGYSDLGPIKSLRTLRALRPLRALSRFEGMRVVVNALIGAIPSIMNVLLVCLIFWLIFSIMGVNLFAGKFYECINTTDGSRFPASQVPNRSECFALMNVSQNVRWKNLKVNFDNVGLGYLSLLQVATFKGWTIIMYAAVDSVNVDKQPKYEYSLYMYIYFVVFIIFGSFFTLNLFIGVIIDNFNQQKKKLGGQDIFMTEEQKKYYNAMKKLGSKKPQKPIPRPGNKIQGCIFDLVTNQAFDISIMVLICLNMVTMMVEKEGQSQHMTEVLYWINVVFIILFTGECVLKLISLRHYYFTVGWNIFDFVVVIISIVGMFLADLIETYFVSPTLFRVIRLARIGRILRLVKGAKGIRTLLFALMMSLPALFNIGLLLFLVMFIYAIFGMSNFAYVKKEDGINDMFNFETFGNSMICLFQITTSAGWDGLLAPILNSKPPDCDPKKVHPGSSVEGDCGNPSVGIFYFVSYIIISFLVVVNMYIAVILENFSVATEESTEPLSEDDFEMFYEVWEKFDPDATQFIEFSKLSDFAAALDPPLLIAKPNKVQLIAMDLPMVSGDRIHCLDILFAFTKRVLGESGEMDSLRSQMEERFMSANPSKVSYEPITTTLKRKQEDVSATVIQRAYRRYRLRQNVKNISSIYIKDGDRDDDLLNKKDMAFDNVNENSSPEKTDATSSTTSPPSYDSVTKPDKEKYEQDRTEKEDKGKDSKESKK

| IC50 [µM] | SMILES |
| --- | --- |
| > 9.12 | CN(c1ccccc1)c1nc(N)nc(-c2noc(N3CC4CCC(C3)O4)n2)n1 [Example 500, 2-N-methyl-6-(5-{8-oxa-3-azabicyclo[3.2.1]octan-3-yl}-1,2,4-oxadiazol-3-yl)-2-N-phenyl-1,3,5-triazine-2,4-diamine] |
| 1.43 | CN(c1ccccc1)c1nc(N)nc(-c2noc(-c3ccc(S(C)(=O)=O)cc3)n2)n1 [Example 421, 6-[5-(4-methanesulfonylphenyl)-1,2,4-oxadiazol-3-yl]-2-N-methyl-2-N-phenyl-1,3,5-triazine-2,4-diamine] |
| 2.71 | CN(c1ccccc1)c1nc(N)nc(-c2noc(-c3ccc(C(=O)NCC(F)(F)F)cn3)n2)n1 [Example 292, 6-(3-{4-amino-6-[methyl(phenyl)amino]-1,3,5-triazin-2-yl}-1,2,4-oxadiazol-5-yl)-N-(2,2,2-trifluoroethyl)pyridine-3-carboxamide] |
| 9.36 | Nc1nc(Nc2ccccc2)nc(-c2noc(N3CCC4(CC3)COC4)n2)n1 [Example 246, 6-(5-{2-oxa-7-azaspiro[3.5]nonan-7-yl}-1,2,4-oxadiazol-3-yl)-2-N-phenyl-1,3,5-triazine-2,4-diamine] |
| 0.139 | COCCN(c1ccccc1)c1nc(N)nc(-c2noc(-c3ccc(COCC(F)(F)F)nc3)n2)n1 [Example 312, 2-N-(2-Methoxyethyl)-2-N-phenyl-6-(5-{6-[(2,2,2-trifluoroethoxy)methyl]pyridin-3-yl}-1,2,4-oxadiazol-3-yl)-1,3,5-triazine-2,4-diamine] |
| 0.746 | CC(=O)c1ccc(-c2nc(-c3nc(N)nc(N(C)c4ccccc4)n3)no2)cn1 [Example 304, 1-[5-(3-{4-Amino-6-[methyl(phenyl)amino]-1,3,5-triazin-2-yl}-1,2,4-oxadiazol-5-yl)pyridin-2-yl]ethan-1-one] |
| 1.32 | CN(c1ccccc1)c1nc(N)nc(-c2noc(-c3ncccc3C(=O)NCC3CC3)n2)n1 [Example 369, 2-(3-{4-amino-6-[methyl(phenyl)amino]-1,3,5-triazin-2-yl}-1,2,4-oxadiazol-5-yl)-N-(cyclopropylmethyl)pyridine-3-carboxamide] |
| 2.97 | Nc1nc(Nc2ccccc2)nc(-c2noc(C(=O)NC3CCc4ccccc43)n2)n1 (stereo not shown) [Example 244, 3-[4-amino-6-(phenylamino)-1,3,5-triazin-2-yl]-N-(2,3-dihydro-1H-inden-1-yl)-1,2,4-oxadiazole-5-carboxamide] |
| 0.255 | CN(c1ccccc1)c1nc(N)nc(-c2noc(N3CCC(Oc4ccccc4)CC3)n2)n1 [Example 336, 2-N-methyl-6-[5-(4-phenoxypiperidin-1-yl)-1,2,4-oxadiazol-3-yl]-2-N-phenyl-1,3,5-triazine-2,4-diamine] |
| 1.27 | CC(C)NC(=O)c1nc(-c2nc(N)nc(Nc3cccc(F)c3)n2)no1 [Example 234, 3-{4-amino-6-[(3-fluorophenyl)amino]-1,3,5-triazin-2-yl}-N-(propan-2-yl)-1,2,4-oxadiazole-5-carboxamide] |

The remaining lines, values behind:

| SMILES | IC50 [µM] |
| --- | --- |
| CC(=O)N1CC(c2nc(-c3nc(N)nc(N(C)c4ccccc4)n3)no2)C1 [Example 384, 1-[3-(3-{4-Amino-6-[methyl(phenyl)amino]-1,3,5-triazin-2-yl}-1,2,4-oxadiazol-5-yl)azetidin-1-yl]ethan-1-one] | > 8.59 |
| CN(c1ccccc1)c1nc(N)nc(-c2noc(N3Cc4cncnc4C3)n2)n1 [Example 323, 2-N-Methyl-2-N-phenyl-6-(5-{5H,6H,7H-pyrrolo[3,4-d]pyrimidin-6-yl}-1,2,4-oxadiazol-3-yl)-1,3,5-triazine-2,4-diamine] | 6.45 |
| CN(c1ccccc1)c1nc(N)nc(-c2noc(N3CC[C@H](OCC(F)(F)F)C3)n2)n1 [Example 445, 2-N-methyl-2-N-phenyl-6-{5-[(3S)-3-(2,2,2-trifluoroethoxy)pyrrolidin-1-yl]-1,2,4-oxadiazol-3-yl}-1,3,5-triazine-2,4-diamine] | 3.3 |
| CN(c1ccccc1)c1nc(N)nc(-c2noc(C3CCC(NC(=O)CC4CC4)CC3)n2)n1 (stereo not shown) [Example 426, N-[4-(3-{4-amino-6-[methyl(phenyl)amino]-1,3,5-triazin-2-yl}-1,2,4-oxadiazol-5-yl)cyclohexyl]-2-cyclopropylacetamide] | 6.68 |
| CN(c1ccccc1)c1nc(N)nc(-c2noc(-c3ccc(CSCC(F)(F)F)nc3)n2)n1 [Example 316, 2-N-methyl-2-N-phenyl-6-[5-(6-{[(2,2,2-trifluoroethyl)sulfanyl]methyl}pyridin-3-yl)-1,2,4-oxadiazol-3-yl]-1,3,5-triazine-2,4-diamine] | 0.013 |
| CN(c1ccccc1)c1nc(N)nc(-c2noc(-c3ccc(OCC(F)F)nc3)n2)n1 [Example 372, 6-{5-[6-(2,2-difluoroethoxy)pyridin-3-yl]-1,2,4-oxadiazol-3-yl}-2-N-methyl-2-N-phenyl-1,3,5-triazine-2,4-diamine] | 0.155 |
| CN(c1ccccc1)c1nc(N)nc(-c2noc(N3CCC(NC(=O)C(F)(F)F)CC3)n2)n1 [Example 274, N-[1-(3-{4-amino-6-[methyl(phenyl)amino]-1,3,5-triazin-2-yl}-1,2,4-oxadiazol-5-yl)piperidin-4-yl]-2,2,2-trifluoroacetamide] | 8.58 |
| CC(C)S(=O)(=O)N1CC(c2nc(-c3nc(N)nc(N(C)c4ccccc4)n3)no2)C1 [Example 308, 2-N-methyl-2-N-phenyl-6-{5-[1-(propane-2-sulfonyl)azetidin-3-yl]-1,2,4-oxadiazol-3-yl}-1,3,5-triazine-2,4-diamine] | 8.77 |
| COCCN(c1ccccc1)c1nc(N)nc(-c2noc(N3CC(Oc4ccccc4)C3)n2)n1 [Example 436, 2-N-(2-Methoxyethyl)-6-[5-(3-phenoxyazetidin-1-yl)-1,2,4-oxadiazol-3-yl]-2-N-phenyl-1,3,5-triazine-2,4-diamine] | 0.171 |
| CN(c1ccccc1)c1nc(N)nc(-c2noc(-c3ncccc3F)n2)n1 [Example 482, 6-[5-(3-Fluoropyridin-2-yl)-[1,2,4]oxadiazol-3-yl]-N-methyl-N-phenyl-[1,3,5]triazine-2,4-diamine] | 0.647 |
| CN(c1ccccc1)c1nc(N)nc(-c2noc([C@@H]3CCCN3C(=O)OC(C)(C)C)n2)n1 [Example 440, tert-butyl (2S)-2-(3-{4-amino-6-[methyl(phenyl)amino]-1,3,5-triazin-2-yl}-1,2,4-oxadiazol-5-yl)pyrrolidine-1-carboxylate] | 1.3 |

same assay, conditions: marker c: Automated patch clamp data; read-out: Nav 1.7 activity

| IC50 [µM] | SMILES |
| --- | --- |
| 0.511 | COc1ccccc1-c1nc(-c2nc(N)nc(N(C)c3cccc(C)c3)n2)no1 [Example 92, 6-[5-(2-Methoxy-phenyl)-[1,2,4]oxadiazol-3-yl]-N-methyl-N-m-tolyl-[1,3,5]triazine-2,4-diamine] |
| 4.91 | CN(c1ccccc1)c1nc(N)nc(-c2noc(-c3ccc(N)nc3)n2)n1 [Example 55, 6-[5-(6-Amino-pyridin-3-yl)-[1,2,4]oxadiazol-3-yl]-N-methyl-N-phenyl-[1,3,5]triazine-2,4-diamine] |

More lines, now with the values behind:

| SMILES | IC50 [µM] |
| --- | --- |
| Cc1ccc(-c2nc(-c3nc(N)nc(N(C)c4cccc(F)c4)n3)no2)o1 [Example 87, N-(3-Fluoro-phenyl)-N-methyl-6-[5-(5-methyl-furan-2-yl)-[1,2,4]oxadiazol-3-yl]-[1,3,5]triazine-2,4-diamine] | 3.49 |
| CN(c1ccccc1)c1nc(N)nc(-c2noc(C3CCCO3)n2)n1 (stereo not shown) [Example 66, N-Methyl-N-phenyl-6-[5-(tetrahydro-furan-2-yl)-[1,2,4]oxadiazol-3-yl]-[1,3,5]triazine-2,4-diamine] | 1.68 |
